Reference: ChEMBL document CHEMBL3792287, “Antiplasmodial phloroglucinol derivatives from Syncarpia glomulifera” (Bioorg Med Chem, 2016)

Key:
Plasmodium falciparum = test: Antiplasmodial activity against Plasmodium falciparum Dd2 incubated under low oxygen conditions after 72 hrs by SYBR green assay; format: functional, organism-based; details: Dd2, 72 h
HEK293 [1] = test: Cytotoxicity against HEK293 cells assessed as reduction in cell viability at 100 uM after 24 hrs by resazurin dye based fluorescence assay; details: human, hek293, 24 h
HEK293 [2] = test: Cytotoxicity against HEK293 cells assessed as reduction in cell viability up to 3.125 uM after 24 hrs by resazurin dye based fluorescence assay; details: human, hek293, 24 h
[3] = Cytotoxicity against HEK293 cells assessed as reduction in cell viability at 50 uM after 24 hrs by resazurin dye based fluorescence assay; details: human, read-out: INH

IC50 (Plasmodium falciparum) [µM] | SMILES | Activity (HEK293 [1]) | Activity (HEK293 [2]) | cytotoxicity at 24 h, 50 µM [3] [%]
> 40 | C[C@H]1[C@H](C)CC[C@]2(C(=O)O)CC[C@]3(C)C(=CC[C@@H]4[C@@]5(C)CC[C@H](O)C(C)(C)[C@@H]5CC[C@]43C)[C@H]12 [URSOLIC ACID] |  |  | 
> 80 | CCCCCC(=O)c1c(O)cc(O)cc1O |  |  | 
0.1 | CCCCCC(=O)c1c(O)cc(O)c2c1OC1=C(C(=O)C(C)(C)C(=O)C1(C)C)C2CC(C)C (racemic) |  | Non-toxic | 58
12.1 | CC(=O)O[C@H]1CC[C@]2(C)[C@H]3CC=C4[C@@H]5[C@@H](C)[C@H](C)CC[C@]5(C(=O)O)CC[C@@]4(C)[C@]3(C)CC[C@H]2C1(C)C [O-ACETYLURSOLIC ACID] |  |  | 

Further lines, the compound ahead of its results:

SMILES | IC50 (Plasmodium falciparum) [µM] | Activity (HEK293 [1]) | Activity (HEK293 [2]) | cytotoxicity at 24 h, 50 µM [3] [%]
C[C@@H]1CC[C@H]2[C@@H](C)C(=O)O[C@@H]3O[C@@]4(C)CC[C@@H]1[C@]32OO4 [ARTEMISININ] | 0.0062 |  |  | 
C=C(C)[C@@H]1CC[C@]2(C(=O)O)CC[C@]3(C)[C@H](CC[C@@H]4[C@@]5(C)CC[C@H](O)C(C)(C)[C@@H]5CC[C@]43C)[C@@H]12 [BETULINIC ACID] | 3.44 |  |  | 
CC(C)=CCCC1=CCC2(C(=O)C(C)(C)C(=O)C(C)(C)C2=O)C(CC(C)C)C1 (racemic) | 3.81 | Non-toxic |  | 
